The text below walks through data of patent US7514438B2, “Melanin concentrating hormone receptor antagonist” (Amgen, Inc., priority 2003, dated 2009).

As usually defined, the IC50 is the concentration needed to halve the response being measured. By Ki is commonly meant a dissociation constant, usually derived from enzyme kinetics or from competition with a known ligand.

Where two headings read alike, the source gives them in different places.

Experiment [1] deals with T1, rat MCH 1 receptor (rMCH1R) (Rattus norvegicus, UniProt P97639).
T1 construct: expressed in transfected cells; host or cells: HEK 293 (membranes)
The experiment can be described thus: 125I-MCH ligand binding assay, rMCH. The protocol: (§1) Human embryonic kidney cells (293 total) expressing either human, rat, or mouse MCH receptor were harvested from 150 mm culture dishes using PBS. Spinning at 1500 rpm for 2 minutes initially pelleted cells. The resulting pellet was then homogenized in 15 mL ice cold sucrose buffer (25 mM HEPES, 0.3 M sucrose, pH 7.4) with a motorized, glass fitted, Teflon® homogenizer. The homogenate was centrifuged at 48,000×g at 4° C. for 10 minutes, resuspended in 15 mL assay buffer (25 mM HEPES, 10 mM mgCl2, 0.2% BSA, 0.1 mg/mL STI, 0.1 mg/mL Pefabloc®, 1 μM Phosphoramidon, pH 7.4) with a Tissue-Tearor® (Biospec Products) and centrifuged again at 48,000×g for 10 minutes. The pellet was homogenized for a third time in 15 mL assay buffer using the Tissue-Tearor® and again centrifuged at 48,000×g for 10 minutes. The resulting pellet was resuspended in assay buffer at a wet weight concentration of 10-20 mg/mL.
(§2) Binding assays were determined as described below using mouse, rat or human MCH 1 receptors (mMCH1R, rMCH1R, and hMCH1R, respectively) expressed in HEK 293; IC50 values were calculated.
(§3) Binding assays were performed in 96-well U-bottom plates. Membranes (100 μg tissue) were incubated at 30° C. for 90 minutes in assay buffer with various peptides in the presence of 0.2 nM ^125I native-MCH (Perkin-Elmer Life Sciences, Boston, Mass.) in 100 μL total volume. Non-specific binding was assessed in the presence of 1 μM cold native-MCH. The reaction was terminated by rapid filtration through Unfilter-96 GF/C glass fiber filter plates (FilterMate® 196 Harvester, Packard Instrument Co., Meriden, Conn.) pre-soaked in PBS/0.5% BSA, followed by three washes with 300 μL ice-cold water. Bound radioactivity was determined using a TopCount® microplate scintillation and luminescence counter (Packard Instrument Co., Meriden, Conn.). Nonlinear regression analyses of drug concentration curves were performed using GraphPad Prism® (GraphPad Software, Inc., San Diego, Calif.).

Experiment [2] deals with T2, human MCH 1 receptor (hMCH1R) (Homo sapiens, UniProt Q99705).
T2 construct: expressed in transfected cells; host or cells: HEK 293 (membranes)
The experiment can be described thus: 125I-MCH ligand binding assay, hMCH. The protocol:
as §1, §2, §3

Another experiment addresses rat MCH1 receptor (Rattus norvegicus, UniProt P97639). The experiment can be described thus: rMCH FLIPR calcium mobilization assay (CHOK1-Gqi cells). The class given is cell-based. Set-up: expressed in transfected cells; host or cells: CHOK1-Gqi. The method, then:
Pharmacological analyses were conducted using either a HT-PS100 device (Axiom Biotechnologies, San Diego, Calif.), which provides high-resolution dose-response fluorometric measurements of [Ca^++]i mobilization, or using a FLIPR® device (Molecular Devices, Sunnyvale, Calif.).
Materials: Pharmacological analysis was conducted using a FLIPR® device (Molecular Devices, Sunnyvale, Calif.). CHOK1-Gqi cells were stably transfected with the rat MCH1 receptor and maintained under G418 antibiotic pressure. FLIPR® assay buffer consisted of phenol red-free DMEM+2.5 mM probenecid. […]. Test compounds were prepared as 10 mM stocks in 100% DMSO and diluted to a top end working concentration of 10 μM in 96 well black, flat bottom, collagen-I coated plates (Becton Dickinson, Bedford, Mass.).
Methods: CHOK1-Gqi cells stably expressing MCH1R were maintained in Dulbeco's modified Eagle's medium (GIBCO/Life Technologies, Rockville, Md.) supplemented with 2 mM glutamine and 10% dialyzed fetal bovine serum (HyCLone, Logan, Utah) at 37° C., 5% CO2. Cells were harvested by 10′ treatment with Versene (GIBCO/Life Technologies) followed by trituration, washing twice with cold (4° C.) hybridoma medium (Serum/Protein free, with L-glutamine, sodium bicarbonate, MOPS buffer) (Sigma-Aldrich Corp, St. Louis, Mo.) and replated onto 96 well black, flat bottom, collagen-I coated plates to a density of 10,000 cells/well. The cells were then loaded with the fluorescent calcium indicator Fura-2 (Molecular Probes, Eugene, Oreg.) at 1.6 μM for 60′ at room temperature. The loaded cells were then washed twice with 90 μl/well of wash buffer (1×HBSS, 20 mM HEPES, 2.5 mM probenecid).
Receptor-stimulated intracellular calcium responses were detected using FLIPR® by monitoring increases in the Fura-2 fluorescence response.
Test compounds were screened for MCH1R activity in the FLIPR® for both agonist and antagonist action. Agonist mode challenges were conducted at a maximum gradient concentration of 1 μM. Antagonist activity was tested by 10 min pre-incubation of cells at a compound concentration of defined to be 300× the EC50 of MCH (typically 1 μM), with subsequent introduction of MCH at a concentration 5-fold of EC50 as determined in preliminary experiments. […].
Several fixed concentrations of antagonist compounds were prepared in 10-fold increments, and presented to the cells in a gradient of increasing MCH concentration. Values for compound pA2 were calculated by linear regression of MCH EC50s as a function of antagonist concentration.

The next experiment concerns the target T3, human MCH receptor (Homo sapiens, UniProt Q99705).
T3 construct: expressed in transfected cells
The experiment can be described thus: hMCH FLIPR calcium mobilization assay. The class given is cell-based. The conditions noted are these: 100 μM or less list; read-out: Ki in the hMCH FLIPR assay. On the technique in general: A change in cytosolic calcium serves as a functional read-out for many receptors and channels.

Setting [3] is: HEK 293 membranes, 0.2 nM 125I native-MCH, 100 μM or less list, read-out: IC50 in the rMCH binding assay.
Where [4] appears, read: HEK 293 membranes, 0.2 nM 125I native-MCH, 100 μM or less list, read-out: IC50 in the hMCH binding assay.
Where [5] appears, read: CHOK1-Gqi cells, rat MCH1 receptor, 100 μM or less list, read-out: Ki in the rMCH FLIPR assay.
The mark [6] stands for this setting: HEK 293 membranes, 0.2 nM 125I native-MCH, 100 nM or less list, read-out: IC50 in the rMCH binding assay.

T1 sequence (P97639 whole entry): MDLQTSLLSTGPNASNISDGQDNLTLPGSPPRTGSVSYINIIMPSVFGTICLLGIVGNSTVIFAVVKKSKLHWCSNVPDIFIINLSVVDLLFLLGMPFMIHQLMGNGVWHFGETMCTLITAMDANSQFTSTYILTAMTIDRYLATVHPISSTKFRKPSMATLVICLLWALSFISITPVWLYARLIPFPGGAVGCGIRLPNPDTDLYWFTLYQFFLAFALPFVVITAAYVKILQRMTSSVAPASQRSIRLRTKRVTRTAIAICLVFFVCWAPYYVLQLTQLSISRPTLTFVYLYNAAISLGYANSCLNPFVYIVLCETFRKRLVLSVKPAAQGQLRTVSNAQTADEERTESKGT
Chain of rat MCH1 receptor (P97639 whole entry): as above
T2 sequence (Q99705 whole entry): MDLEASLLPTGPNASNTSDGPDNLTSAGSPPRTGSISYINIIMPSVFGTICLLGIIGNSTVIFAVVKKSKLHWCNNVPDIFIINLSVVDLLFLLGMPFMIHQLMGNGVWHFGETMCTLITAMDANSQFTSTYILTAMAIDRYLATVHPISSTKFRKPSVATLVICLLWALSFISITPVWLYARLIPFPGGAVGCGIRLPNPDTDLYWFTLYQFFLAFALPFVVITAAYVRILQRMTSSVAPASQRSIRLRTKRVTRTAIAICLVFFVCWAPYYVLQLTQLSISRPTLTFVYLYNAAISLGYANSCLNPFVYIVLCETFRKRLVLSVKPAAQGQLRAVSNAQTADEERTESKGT
T3 sequence (Q99705 whole entry): as above

For the compound `Cc1cccc(C)c1-n1nnnc1[C@H](c1cccc(Oc2ccccc2)c1)N1CCN(C/C=C/c2ccccc2)CC1` (racemic) [Compound 12, 1-[[1-(2,6-dimethyiphenyl)-1H-tetrazol-5-yl]-(3-phenoxyphenyl)methyl]-4-(3-phenylallyl)piperazine], the IC50 in experiment [1] (setting [3]) and in experiment [2] (setting [4]) was no more than 100 µM each time. At rat MCH1 receptor (setting [5]), the Ki is no more than 100 µM.

For `Clc1ccc(CCn2nnnc2[C@H](c2ccccc2)N2CCN(C/C=C/c3ccccc3)CC2)cc1` (racemic) [Compound 39, 1-({1-[2-(4-chlorophenyl)ethyl]-1H-tetrazol-5-yl}phenylmethyl)-4-(3-phenylallyl)piperazine], the IC50 in experiment [1] (setting [3]) and in experiment [2] (setting [4]) was no more than 100 µM throughout.

As for `CC(C)n1nnnc1[C@H](c1ccccc1)N1CCN(C/C=C/c2ccccc2)CC1` (racemic) [Compound 19, 1-[(1-isopropyl-1H-tetrazol-5-yl)phenylmethyl]-4-(3-phenylallyl)piperazine], the IC50 in experiment [1] (setting [3]) and in experiment [2] (setting [4]) was no more than 100 µM in each case.

As for `Cc1cccc(C)c1-n1nnnc1[C@H](c1ccc(/C=C/c2ccccc2)cc1)N1CCN(C/C=C/c2ccccc2)CC1` (racemic) [Compound 52, 1-[[1-(2,6-dimethylphenyl)-1H-tetrazol-5-yl]-(4-styrylphenyl)methyl]-4-(3-phenylallyl)piperazirie], the IC50 in experiment [1] (setting [3]) and in experiment [2] (setting [4]) was no more than 100 µM throughout.

With `Cc1cccc(C)c1-n1nnnc1[C@H](c1cccc(Oc2cc(Cl)cc(Cl)c2)c1)N1CCN(C/C=C/c2ccccc2)CC1` (racemic) [Compound 87, 1-{[3-(3,5-dichloro-phenoxy)-phenyl]-[1-(2,6-dimethylphenyl)-1H-tetrazol-5-yl]methyl}-4-(3-phenylallyl)piperazine], the Ki at human MCH receptor and at rat MCH1 receptor (setting [5]) was no more than 100 µM in each case. Besides, the half-inhibitory concentration (IC50) in experiment [2] (setting [4]) is no more than 100 µM.

Consider `Cc1cccc(C)c1-n1nnnc1C1(N2CCN(C/C=C/c3ccccc3)CC2)CCCCC1` [Compound 92, 1-{1-[1-(2,6-dimethylphenyl)-1H-tetrazol-5-yl]cyclohexyl)-4-(3-phenylallyl)piperazine], for which the IC50 in experiment [1] and in experiment [2] was no more than 100 µM throughout. In addition, the inhibitory constant (Ki) on rat MCH1 receptor was no more than 100 µM.

On to `C(=C\c1ccccc1)/CN1CCN([C@@H](c2ccccc2)c2nnnn2CC2CCCO2)CC1` (stereo in doubt) [Compound 33, 1-(3-phenylallyl)-4-{phenyl-[1-(tetrahydrofuran-2-ylmethyl)-1H-tetrazol-5-yl]methyl}piperazine], for which the IC50 in experiment [1] (setting [3]) and in experiment [2] (setting [4]) was no more than 100 µM each time.

As for `Cc1cccc(C)c1-n1nnnc1[C@H](c1cccc(C(F)(F)F)c1)N1CCN(C/C=C/c2ccccc2)CC1` (stereo in doubt) [Compound 142, 1-[[1-(2,6-dimethylphenyl)-1H-tetrazol-5-yl]-(3-trifluoromethylphenyl)methyl]-4-(3-phenylallyl)piperazine], the IC50 in experiment [1] (setting [6]) was no more than 0.1 µM; in experiment [1] (setting [3]), no more than 100 µM; in experiment [2] (HEK 293 membranes, 0.2 nM 125I native-MCH, 100 nM or less list, read-out: IC50 in the hMCH binding assay), no more than 0.1 µM; in experiment [2] (setting [4]), no more than 100 µM.

`Cc1cccc(C)c1-n1nnnc1C(c1ccc(-c2ccccc2)cc1)N1CCN(C/C=C/c2ccccc2)CC1` (centres unmarked) [Compound 11, 1-{biphenyl-4-yl-[1-(2,6-dimethyiphenyl)-1H-tetrazol-5-yl]methyl}-4-(3-phenylallyl)piperazine]: the figures for the IC50 in experiment [1] (setting [6]), in experiment [1] (setting [3]) and in experiment [2] (setting [4]) were no more than 0.1 µM, no more than 100 µM and no more than 100 µM, respectively. For the same compound, the Ki is no more than 0.1 µM on rat MCH1 receptor (CHOK1-Gqi cells, rat MCH1 receptor, 100 nM or less list, read-out: Ki in the rMCH FLIPR assay) and no more than 100 µM at rat MCH1 receptor (setting [5]).

On to `COC(=O)C(Cc1ccccc1)n1nnnc1[C@H](c1ccccc1)N1CCN(C/C=C/c2ccccc2)CC1` (stereo in doubt) [Compound 26, 3-phenyl-2-(5-{phenyl-[4-(3-phenylallyl)piperazin-1-yl]methyl}tetrazol-1-yl)propionic acid methyl ester], for which the half-maximal inhibitory concentration (IC50) in experiment [1] (setting [3]) and in experiment [2] (setting [4]) was no more than 100 µM throughout.

`O=C1CCCN1CCCn1nnnc1[C@H](c1ccccc1)N1CCN(C/C=C/c2ccccc2)CC1` (racemic) [Compound 36, 1-[3-(5-{phenyl-[4-(3-phenylallyl)piperazin-1-yl]methyl}tetrazol-1-yl)propyl]pyrrolidin-2-one]: the IC50 in experiment [1] (setting [3]) and in experiment [2] (setting [4]) was no more than 100 µM in each case.

For `Cc1cccc(C)c1-n1nnnc1[C@H](c1ccncc1)N1CCN(C/C=C/c2ccccc2)CC1` (racemic) [Compound 86, 1-{[1-(2,6-dimethylphenyl)-1H-tetrazol-5-yl]pyridin-4-ylmethyl}-4-(3-phenylallyl)piperazine], the Ki at human MCH receptor and on rat MCH1 receptor (setting [5]) was no more than 100 µM in each case. For the same compound, in experiment [2] (setting [4]), the half-inhibitory concentration (IC50) was no more than 100 µM.

For the compound `Cc1cccc(C)c1-n1nnnc1[C@H](COCc1ccccc1)N1CCN(C/C=C/c2ccccc2)CC1` (racemic) [Compound 69, 1-{2-benzyloxy-1-[1-(2,6-dimethylphenyl)-1H-tetrazol-5-yl]ethyl}-4-(3-phenylallyl)piperazine], the IC50 in experiment [1] (setting [3]) and in experiment [2] (setting [4]) was no more than 100 µM in each case.

Turning to `Cc1cccc(C)c1-n1nnnc1[C@H](c1cccc2ccccc12)N1CCN(C/C=C/c2ccccc2)CC1` (racemic) [Compound 46, 1-{[1-(2,6-dimethyiphenyl)-1H-tetrazol-5-yl]naphthalen-1-ylmethyl}-4-(3-phenylallyl)piperazine], the IC50 in experiment [1] (setting [3]) and in experiment [2] (setting [4]) was no more than 100 µM throughout.

For the compound `Cc1cccc(C)c1-n1nnnc1[C@H](c1cccc(Oc2ccc(Cl)c(Cl)c2)c1)N1CCN(C/C=C/c2ccccc2)CC1` (racemic) [Compound 72, 1-{[3-(3,4-dichlorophenoxy)phenyl]-[1-(2,6-dimethylphenyl)-1H-tetrazol-5-yl]methyl}-4-(3-phenylallyl) piperazine], the half-inhibitory concentration (IC50) in experiment [1] (setting [3]) and in experiment [2] (setting [4]) was no more than 100 µM in each case.

Consider `CN1CCCC1CCn1nnnc1[C@H](c1ccccc1)N1CCN(C/C=C/c2ccccc2)CC1` (stereo in doubt) [Compound 37, 1-({1-[2-(1-methyl-pyrrolidin-2-yl)ethyl]-1H-tetrazol-5-yl}phenylmethyl)-4-(3-phenylallyl)piperazine], for which the IC50 in experiment [1] (setting [3]) and in experiment [2] (setting [4]) was no more than 100 µM throughout.
